From PMC8838408, “Antileishmanial Effects of Acetylene Acetogenins from Seeds of Porcelia macrocarpa (Warm.) R.E. Fries (Annonaceae) and Semisynthetic Derivatives” (Molecules, 2022)
“Also recorded” adds a separate entry of the source. Like-named read-outs stand apart in the source and are kept apart here.

How the values were obtained:
[1] = Cytotoxicity against mammalian cells (MTT assay); assay type: cell-based; conditions: mouse, NCTC clone 929 cells, highest concentration 200 μM
Procedure: (§1) Macrophages were collected from the peritoneal cavity of female BALB/c mice by washing with RPMI-1640 without phenol red, supplemented with 10% FBS at 37 °C in a humidified atmosphere containing 5% CO2. NCTC (clone 929) cells were maintained in RPMI-1640 (without phenol red and supplemented with 10% FBS) at 37 °C in the same conditions of the peritoneal macrophages.
The 50% cytotoxic concentration (CC50) was determined in NCTC clone 929 cells. NCTC cells were seeded at 6 × 10^4 cells/well in 96-well microplates and incubated with serial dilutions of the tested compounds or standard drug (miltefosine) to the highest concentration of 200 μM for 48 h at 37 °C in a 5% CO2-humidified incubator. An MTT assay determined the viability of the cells at 570 nm. The selectivity index (SI) was determined considering the following equation: CC50 NCTC cells/IC50 parasites.
(§2) The data obtained represent the mean and standard deviation of duplicate samples from at least three independent assays. IC50 and CC50 values were calculated using sigmoid dose–response curves in Graph Pad Prism 5.0 software (GraphPad Software, San Diego, CA, USA).

[2] = system: intracellular amastigote forms of Leishmania (L.) infantum; assay: Activity against L. (L.) infantum intracellular amastigotes in infected peritoneal macrophages; assay type: cell-based; conditions: for SI (selectivity index): CC50 NCTC cells/IC50 parasites; for IC50 / IC50 L. (L.) infantum: 96 h; for IC50: read-out: IC50 L. (L.) infantum
Procedure: L. (L.) infantum (MHOM/BR/1972/LD) was maintained through successive passages in golden hamsters up to 60–70 days post-infection. Amastigotes were harvested from spleens of infected hamsters by differential centrifugation.
as §1
The 50% inhibitory concentrations (IC50) against intracellular amastigotes for tested compounds were determined in infected macrophages. Peritoneal macrophages were obtained as described in the Section 3.6.3, and L. (L.) infantum amastigotes were obtained from spleens of infected hamsters by differential centrifugation. Peritoneal macrophages were seeded at 1 × 10^5 cells per well in Nunc™ 16-well slide chambers (Aldrich, St. Louis, MO, USA) for 24 h at 37 °C in a 5% CO2-humidified incubator. Next, amastigotes were isolated from a spleen of an infected hamster as described, counted, seeded at a 1:10 macrophages/amastigotes ratio, and incubated for 24 h. Non-internalized parasites were removed by washing twice with a culture medium. Then, the macrophages were incubated with compounds or standard drug (miltefosine) in a range of 100 to 0.78 μM for 96 h at 37 °C in a 5% CO2-humidified incubator, using miltefosine as a standard drug. At the end of the assay, the cells were fixed in methanol, stained with Giemsa, and observed under a digital light microscope (EVOS M5000, Thermo, Waltham, MA, USA) to determine the number of infected macrophages out of 400 cells.
as §2

[3] = Peritoneal macrophage, intracellular amastigotes in BALB/c peritoneal macrophages, 100 to 0.78 μM, NA: non-active
[4] = intracellular amastigotes in BALB/c peritoneal macrophages, 100 to 0.78 μM, NA: non-active

| IC50 [2, 3] [µM] | SMILES | CC50 at 48 h [1] [µM] | SI (selectivity index) [2] | IC50 [2, 4] [µM] | IC50 ([2]; Peritoneal macrophage) [µM] | IC50 L. (L.) infantum [2, 4] |
| --- | --- | --- | --- | --- | --- | --- |
| 29.9 ± 9.7 | C=CCCCCCCC#CCCCCCCCCCC[C@@H]1C(=O)O[C@H](C)[C@@H]1O [Compound 1, (2S,3R,4R)-3-hydroxy-4-methyl-2-(n-eicos-11′-yn-19′-enyl)butanolide] | > 200 | >6.7 | – | – | – |
| – | C=CCCCCCCC#CCCCCCCCCCCC1=C[C@@H](C)OC1=O [Compound 1b, 4R-Methyl-2-(n-eicos-11′-yn-19′-enil)but-2-enolide] | > 200 | >8.6 | – | 23.1 ± 5.4 | – |
| > 100 | CCCCCCCCC#CCCCCCCCCCC[C@@H]1C(=O)O[C@H](C)[C@@H]1O [Compound 2, (2S,3R,4R)-3-hydroxy-4-methyl-2-(n-eicos-11′-ynyl)butanolide] | > 200 | – | – | – | inactive |
| – | CCCCCCCCC#CCCCCCCCCCC[C@@H]1C(=O)O[C@H](C)[C@@H]1OC(C)=O [Compound 2a, (2S,3R,4R)-3-Acetoxy-4-methyl-2-(n-eicos-11′-ynil)butanolide] | > 200 | – | – | – | no activity |
| – | CCCCCCCCC#CCCCCCCCCCCC1=C[C@@H](C)OC1=O [Compound 2b, 4R-Methyl-2-(n-eicos-11′-ynil)but-2-enolide] | > 200 | – | – | – | no activity |
| > 100 | CCCCCCCCCCCCCCCCCCCCC1C(=O)OC(C)C1O [Compound 3, (2S,3R,4R)-3-Hydroxy-4-methyl-2-(n-eicosanil)butanolide] | > 200 | – | – | – | lack of activity; also recorded: no activity |
| – | CCCCCCCCCCCCCCCCCCCCC1C(=O)OC(C)C1OC(C)=O [Compound 3a, (2S,3R,4R)-3-Acetoxy-4-methyl-2-(n-eicosanil)butanolide] | > 200 | – | – | – | lack of activity; also recorded: no activity |
| – | CCCCCCCCCCCCCCCCCCCCC1=C[C@@H](C)OC1=O [Compound 3b, 4R-Methyl-2-(n-eicosanil)but-2-enolide] | > 200 | – | – | – | lack of activity; also recorded: no activity |
| 17.8 ± 1.4 | CCCCCCCCCCCCCCCCOP(=O)([O-])OCC[N+](C)(C)C [Miltefosine, reference compound] | 116 ± 5.3 | 6.5 | – | – | – |

| SMILES | IC50 [2, 3] [µM] | CC50 at 48 h [1] [µM] | SI (selectivity index) [2] | IC50 [2, 4] [µM] | IC50 ([2]; Peritoneal macrophage) [µM] | IC50 L. (L.) infantum [2, 4] |
| --- | --- | --- | --- | --- | --- | --- |
| C=CCCCCCCC#CCCCCCCCCCC[C@@H]1C(=O)O[C@H](C)[C@@H]1OC(C)=O [Compound 1a, (2S,3R,4R)-3-Acetoxy-4-methyl-2-(n-eicos-11′-yn-19′-enil)butanolide] | 43.3 | > 200 | >4.6 | 43.4 ± 3.9 | – | – |
